Experimental data from patent EP0310585B1, “Octapeptide inhibitors of myristoylating enzymes” (WASHINGTON UNIVERSITY, priority 1987, dated 1989).
pKi: −log10 of the molar value. Where no end group is shown, it is not given here.

Experiments:
[1] = target: T1, N-myristoylglycylpeptide synthetase (Saccharomyces cerevisiae, UniProt P14743); test: Assay for N-myristoylglycylpeptide synthetase activity, crude yeast membrane fractions (Table I); type: biochemical; settings: Test 3: + 1 mM peptide, 18 µM peptide substrate GlyAsnAlaAlaAlaAlaArgArg, control 26.7
T1 construct: A protease-deficient strain of Saccharomyces cerevisiae, JR153 [Hemmings et al., Proc. Natl. Acad. Sci. USA 78, 435-439 (1981)], was used as a source of N-myristoylglycylpeptide synthetase; endogenous in cells; host or cells: S. cerevisiae strain JR153, crude membrane pellet of cell lysate
T1 sequence (P14743 1-455): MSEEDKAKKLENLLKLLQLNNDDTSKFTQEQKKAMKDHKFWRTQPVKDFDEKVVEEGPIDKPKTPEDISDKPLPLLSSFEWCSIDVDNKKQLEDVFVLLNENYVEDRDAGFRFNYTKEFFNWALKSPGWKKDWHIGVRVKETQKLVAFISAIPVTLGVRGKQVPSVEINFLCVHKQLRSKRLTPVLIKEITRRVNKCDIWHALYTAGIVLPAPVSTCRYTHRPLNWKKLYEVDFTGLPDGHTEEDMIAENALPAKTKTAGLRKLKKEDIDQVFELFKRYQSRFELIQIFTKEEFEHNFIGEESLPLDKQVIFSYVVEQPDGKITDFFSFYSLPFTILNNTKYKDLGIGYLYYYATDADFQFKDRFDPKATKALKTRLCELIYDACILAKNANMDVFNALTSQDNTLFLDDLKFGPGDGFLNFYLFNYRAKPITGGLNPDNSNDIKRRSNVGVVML
Description: Preparation of yeast extract for the assay of N-myristoylglycylpeptide synthetase activity. Yeast cultures were grown as described above to O.D. 660 nm of 1 to 3. Cells from 40 ml of culture were collected by centrifugation at 4°C at 7600 x g for 10 minutes. The supernatant was decanted, the cell pellet was resuspended by pipetting into 1 ml of cold 10 mM Tris, pH 7.4, transferred to a 1.5 ml conical polypropylene centrifuge tube, and the cells were then repelleted at 4°C at 7600 x g for 10 minutes. […] Protein was determined by the method of Peterson, Anal. Biochem. 83, 346-356 (1977).
Assay for N-myristoylglycylpeptide synthetase activity. […] Typically, 40% to 50% of the [³H]fatty acid was converted to its CoA ester by this procedure as measured by determining the radioactivity remaining in the reaction after acidification with 6 N HCl to pH 2.0 and extraction 6 times with 5 volumes of heptane, a modification of the method of Hosaka et al., Meth. […] (Under these conditions, 95% of synthetic [³H]myristoylpeptide or [³H]palmitoylpeptide remined soluble when added to an assay mixture.) Fifty microliters of the supernatant were mixed with 75 µl methanol and 75 µl of HPLC buffer A, and analyzed by reverse phase HPLC on a 3.9 mm by 30 cm Waters µ-Bondapak C₁₈ column using the same HPLC buffers described above, starting at 35% acetonitrile and eluting with a 1% per minute acetonitrile gradient. […]

[2] = target: T2, N-myristoylglycylpeptide synthetase (N-myristoyl transferase or NMT) (Saccharomyces cerevisiae, UniProt P14743); test: Octapeptide substrate specificity / kinetic characterization with partially purified yeast myristoylating enzyme (Table II); type: biochemical
T2 construct: endogenous in cells; host or cells: S. cerevisiae strain JR153
T2 sequence (P14743 1-455): T1 sequence (P14743 1-455)
Description: The synthetic octapeptides I and II were initially used to identify a unique enzymatic activity which transfers myristic acid to the amino terminal glycine of this and other peptides. […] The enzyme activity was determined in an in vitro assay which measures the transfer of [³H]-myristic acid to the acceptor peptide, […]. The transfer reaction is dependent on adenosine triphosphate (ATP) and coenzyme A (CoA). The enzymatic product was then identified by high performance liquid chromatography (HPLC) by co-elution with a chemically synthesized myristoyl peptide standard. […] Both contained M-myristoyl glycine.
Assay for N-myristoylglycylpeptide synthetase activity. [³H]Fatty acyl CoA was synthesized enzymatically and added to the incubation as follows. […] Typically, 40% to 50% of the [³H]fatty acid was converted to its CoA ester by this procedure as measured by determining the radioactivity remaining in the reaction after acidification with 6 N HCl to pH 2.0 and extraction 6 times with 5 volumes of heptane, a modification of the method of Hosaka et al., Meth. […] One minute fractions were collected and the radioactivity in each fraction determined by liquid scintillation counting. […]

Substance: GSSKSPKDPS [a decapeptide containing N-terminal glycine]
- Rate of Myristoylpeptide Synthesis [1]: 27.4 DPM x 10⁻³ /10 min

Substance: GNANSARR-NH2 [Gly-Asn-Ala-Asn-Ser-Ala-Arg-Arg]
- pKi [2]: 6.52

Substance: GNAAKARR-NH2 [Gly-Asn-Ala-Ala-Lys-Ala-Arg-Arg]
- pKi [2]: 4.30

Substance: GPRP
- Rate of Myristoylpeptide Synthesis [1]: 25.6 DPM x 10⁻³ /10 min
